PubChem BioAssay AID1845198 (Molecular Pharmacology Branch, DTP, NCI, 2023)

System: 425362-245-T-J1 tumor spheroids, viability % test/control
Assay: Anticancer human tumor 425362-245-T-J1 patient-derived melanoma cell line growth inhibition
Settings: spheroids with HUVEC and MSC; for IC50: curve of first compound; for viability, T/C: stronger effect = lower value; active means viability on the fitted dose curve at most 10% of control; inactive means the rest
In short: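 Complex spheroids of malignant cells with endothelial cells and mesenchymal stem cells; agents alone or combined, from near clinical Cmax (or 10 microM if unknown) down in half-log steps, 0.25% DMSO final.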

[1] = second compound 0.003 µM, first compound 0.0316 µM
[2] = second compound 0.003 µM, first compound 0.1 µM
[3] = second compound 0.003 µM, first compound 0.316 µM
[4] = second compound 0.003 µM, first compound 1 µM
[5] = second compound 0.003 µM, first compound 3.16 µM
[6] = second compound 0.003 µM, first compound 10 µM
[7] = second compound 0.00949 µM, first compound 0.0316 µM
[8] = second compound 0.00949 µM, first compound 0.1 µM
[9] = second compound 0.00949 µM, first compound 0.316 µM
[10] = second compound 0.00949 µM, first compound 1 µM
[11] = second compound 0.00949 µM, first compound 3.16 µM
[12] = second compound 0.00949 µM, first compound 10 µM
[13] = second compound 0.03 µM, first compound 0.0316 µM
[14] = second compound 0.03 µM, first compound 0.1 µM
[15] = second compound 0.03 µM, first compound 0.316 µM
[16] = second compound 0.03 µM, first compound 1 µM
[17] = second compound 0.03 µM, first compound 3.16 µM
[18] = second compound 0.03 µM, first compound 10 µM
[19] = second compound 0.0949 µM, first compound 0.0316 µM
[20] = second compound 0.0949 µM, first compound 0.1 µM
[21] = second compound 0.0949 µM, first compound 0.316 µM
[22] = second compound 0.0949 µM, first compound 1 µM
[23] = second compound 0.0949 µM, first compound 3.16 µM
[24] = second compound 0.0949 µM, first compound 10 µM
[25] = second compound 0.3 µM, first compound 0.0316 µM
[26] = second compound 0.3 µM, first compound 0.1 µM
[27] = second compound 0.3 µM, first compound 0.316 µM
[28] = second compound 0.3 µM, first compound 1 µM
[29] = second compound 0.3 µM, first compound 3.16 µM
[30] = second compound 0.3 µM, first compound 10 µM
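Further: spheroids exposed to agents for 7 days.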
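Wherever viability, T/C is given: 100% = DMSO vehicle control viability.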

CC(C)n1c(=O)n(C)c2cnc3cc(F)c(-c4ccc(OCCCN5CCCCC5)nc4)cc3c21 + CC[C@@]1(O)C(=O)OCc2c1cc1n(c2=O)Cc2cc3c(CN(C)C)c(O)ccc3nc2-1
< 31.6 nM: IC50 (second compound 0.003 µM) | IC50 (second compound 0.00949 µM) | IC50 (second compound 0.03 µM) | IC50 (second compound 0.0949 µM) | IC50 (second compound 0.3 µM)
active: viability, T/C [3] 7.7% | viability, T/C [4] 6.29% | viability, T/C [5] 8.79% | viability, T/C [6] 4.08% | viability, T/C [7] 6.58% | viability, T/C [8] 4.04% | viability, T/C [9] 3.89% | viability, T/C [10] 3.22% | viability, T/C [11] 3.36% | viability, T/C [12] 2.89% | viability, T/C [13] 5.67% | viability, T/C [14] 4.26% | viability, T/C [15] 4.37% | viability, T/C [16] 4.1% | viability, T/C [17] 5.65% | viability, T/C [18] 2.47% | viability, T/C [19] 7.71% | viability, T/C [20] 4.71% | viability, T/C [21] 4.3% | viability, T/C [22] 3.67% | viability, T/C [23] 6.89% | viability, T/C [24] 2.28% | viability, T/C [25] 2.08% | viability, T/C [26] 2.15% | viability, T/C [27] 1.84% | viability, T/C [28] 1.73% | viability, T/C [29] 1.54% | viability, T/C [30] 1.56%
inactive: viability, T/C [1] 14.6% | viability, T/C [2] 10.4%

CC1COCCN1c1cc(-c2ccnn2C)c2ccnc(-c3ccn[nH]3)c2n1 (stereo not given) + CC[C@@]1(O)C(=O)OCc2c1cc1n(c2=O)Cc2cc3c(CN(C)C)c(O)ccc3nc2-1
active: viability, T/C [3] 6.14% | viability, T/C [4] 6.78% | viability, T/C [5] 6.36% | viability, T/C [6] 6.21% | viability, T/C [8] 6.19% | viability, T/C [9] 4.31% | viability, T/C [10] 5.51% | viability, T/C [11] 5.57% | viability, T/C [12] 5.81% | viability, T/C [13] 4.2% | viability, T/C [14] 2.9% | viability, T/C [15] 3.2% | viability, T/C [16] 4.33% | viability, T/C [17] 5.76% | viability, T/C [18] 6.29% | viability, T/C [19] 2.84% | viability, T/C [20] 1.97% | viability, T/C [21] 2.32% | viability, T/C [22] 4.06% | viability, T/C [23] 4.81% | viability, T/C [24] 4.72% | viability, T/C [25] 1.36% | viability, T/C [26] 1.31% | viability, T/C [27] 1.46% | viability, T/C [28] 1.77% | viability, T/C [29] 2.51% | viability, T/C [30] 3.29%
< 31.6 nM: IC50 (second compound 0.003 µM) | IC50 (second compound 0.00949 µM) | IC50 (second compound 0.03 µM) | IC50 (second compound 0.0949 µM) | IC50 (second compound 0.3 µM)
inactive: viability, T/C [1] 37.4% | viability, T/C [2] 15.3% | viability, T/C [7] 14.2%

COc1cc(C)[nH]c(=O)c1CN1CCc2c(Cl)cc(C(OC)C3COC3)c(Cl)c2C1=O (stereo not given) + CC[C@@]1(O)C(=O)OCc2c1cc1n(c2=O)Cc2cc3c(CN(C)C)c(O)ccc3nc2-1
active: viability, T/C [19] 7.06% | viability, T/C [20] 7.25% | viability, T/C [21] 6.93% | viability, T/C [22] 7.04% | viability, T/C [23] 5.23% | viability, T/C [24] 3.44% | viability, T/C [25] 1.81% | viability, T/C [26] 2.03% | viability, T/C [27] 1.77% | viability, T/C [28] 1.79% | viability, T/C [29] 1.76% | viability, T/C [30] 1.76%
inactive: viability, T/C [1] 98.7% | viability, T/C [2] 102% | viability, T/C [3] 100% | viability, T/C [4] 94.3% | viability, T/C [5] 78.6% | viability, T/C [6] 79.5% | viability, T/C [7] 91% | viability, T/C [8] 89.6% | viability, T/C [9] 85.6% | viability, T/C [10] 80.6% | viability, T/C [11] 75.8% | viability, T/C [12] 59.5% | viability, T/C [13] 53.7% | viability, T/C [14] 37.2% | viability, T/C [15] 46.5% | viability, T/C [16] 47.5% | viability, T/C [17] 29.9% | viability, T/C [18] 21.6%
< 31.6 nM: IC50 (second compound 0.03 µM) | IC50 (second compound 0.0949 µM) | IC50 (second compound 0.3 µM)
> 10000 nM: IC50 (second compound 0.003 µM) | IC50 (second compound 0.00949 µM)

COc1ccc([C@@H](O)c2cc(-c3ncnc4cc(N5CCOCC5)ccc34)c(F)cc2Cl)nn1 + CC[C@@]1(O)C(=O)OCc2c1cc1n(c2=O)Cc2cc3c(CN(C)C)c(O)ccc3nc2-1
1690 nM: IC50 (second compound 0.003 µM)
active: viability, T/C [19] 8.69% | viability, T/C [20] 6.08% | viability, T/C [21] 5.64% | viability, T/C [22] 5.51% | viability, T/C [23] 3.85% | viability, T/C [24] 4.39% | viability, T/C [25] 1.88% | viability, T/C [26] 1.38% | viability, T/C [27] 1.37% | viability, T/C [28] 1.12% | viability, T/C [29] 0.65% | viability, T/C [30] 0.57%
1110 nM: IC50 (second compound 0.00949 µM)
< 31.6 nM: IC50 (second compound 0.03 µM) | IC50 (second compound 0.0949 µM) | IC50 (second compound 0.3 µM)
inactive: viability, T/C [1] 103% | viability, T/C [2] 103% | viability, T/C [3] 72.1% | viability, T/C [4] 60.2% | viability, T/C [5] 40.6% | viability, T/C [6] 17% | viability, T/C [7] 89.7% | viability, T/C [8] 78.7% | viability, T/C [9] 72.4% | viability, T/C [10] 47.9% | viability, T/C [11] 35.1% | viability, T/C [12] 14.9% | viability, T/C [13] 45.5% | viability, T/C [14] 45.6% | viability, T/C [15] 37.8% | viability, T/C [16] 24.5% | viability, T/C [17] 15.1% | viability, T/C [18] 11.2%
